System: 186277-243-T-J2-PDC complex spheroid growth
Test: Anticancer human tumor 186277-243-T-J2-PDC patient-derived colon adenocarcinoma cell line growth inhibition [AhR]
Conditions: for IC50: curve of first compound; for viability, T/C: stronger effect = lower value
Procedure, shortened: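 Agents were dosed in half-log steps down from roughly clinical Cmax, or from 10 microM where Cmax was unknown, alone and with AhR antagonists. Read-out: percent test/control growth of tumor spheroids containing HUVEC and MSC stromal cells.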
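Further: spheroids exposed to compounds for seven days before the viability read.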
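Wherever viability, T/C is given: luminescent signal used as a stand-in for viable cell amount; 100% = DMSO vehicle control wells.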

CC(C)c1c(-c2ccccc2)nc2c(C#N)c[nH]n2c1=O + Cc1ccccc1N=Nc1ccc(NC(=O)c2ccnn2C)c(C)c1
IC50 (second compound 0.1 µM): > 10000 nM | IC50 (second compound 0.316 µM): > 10000 nM | IC50 (second compound 1 µM): > 10000 nM | IC50 (second compound 3.16 µM): > 10000 nM | IC50 (second compound 10 µM): > 10000 nM | viability, T/C (second compound 0.1 µM, first compound 0.0316 µM): 97.4% | viability, T/C (second compound 0.1 µM, first compound 0.1 µM): 110% | viability, T/C (second compound 0.1 µM, first compound 0.316 µM): 104% | viability, T/C (second compound 0.1 µM, first compound 1 µM): 105% | viability, T/C (second compound 0.1 µM, first compound 3.16 µM): 109% | viability, T/C (second compound 0.1 µM, first compound 10 µM): 97.5% | viability, T/C (second compound 0.316 µM, first compound 0.0316 µM): 103% | viability, T/C (second compound 0.316 µM, first compound 0.1 µM): 104% | viability, T/C (second compound 0.316 µM, first compound 0.316 µM): 103% | viability, T/C (second compound 0.316 µM, first compound 1 µM): 98% | viability, T/C (second compound 0.316 µM, first compound 3.16 µM): 112% | viability, T/C (second compound 0.316 µM, first compound 10 µM): 98% | viability, T/C (second compound 1 µM, first compound 0.0316 µM): 98.9% | viability, T/C (second compound 1 µM, first compound 0.1 µM): 106% | viability, T/C (second compound 1 µM, first compound 0.316 µM): 115% | viability, T/C (second compound 1 µM, first compound 1 µM): 96.4% | viability, T/C (second compound 1 µM, first compound 3.16 µM): 98.3% | viability, T/C (second compound 1 µM, first compound 10 µM): 104% | viability, T/C (second compound 3.16 µM, first compound 0.0316 µM): 95.2% | viability, T/C (second compound 3.16 µM, first compound 0.1 µM): 108% | viability, T/C (second compound 3.16 µM, first compound 0.316 µM): 94.3% | viability, T/C (second compound 3.16 µM, first compound 1 µM): 99.7% | viability, T/C (second compound 3.16 µM, first compound 3.16 µM): 99.7% | viability, T/C (second compound 3.16 µM, first compound 10 µM): 98.7% | viability, T/C (second compound 10 µM, first compound 0.0316 µM): 102% | viability, T/C (second compound 10 µM, first compound 0.1 µM): 97.2% | viability, T/C (second compound 10 µM, first compound 0.316 µM): 92.6% | viability, T/C (second compound 10 µM, first compound 1 µM): 101% | viability, T/C (second compound 10 µM, first compound 3.16 µM): 85.8% | viability, T/C (second compound 10 µM, first compound 10 µM): 90.1%

CC(C)CC(NC(=O)C(Cc1ccccc1)NC(=O)c1cnccn1)B(O)O (stereo not given) + CC(CO)NC(=O)c1cc(-c2ccc(Cl)cc2)nn(-c2cnn(C)c2)c1=O
IC50 (second compound 0.1 µM): 5.95 nM | IC50 (second compound 0.316 µM): 5.9 nM | IC50 (second compound 1 µM): 6.06 nM | IC50 (second compound 3.16 µM): 5.87 nM | IC50 (second compound 10 µM): 5.37 nM | viability, T/C (second compound 0.1 µM, first compound 0.000949 µM): 117% | viability, T/C (second compound 0.1 µM, first compound 0.003 µM): 120% | viability, T/C (second compound 0.1 µM, first compound 0.00949 µM): 3.22% | viability, T/C (second compound 0.1 µM, first compound 0.03 µM): 0.06% | viability, T/C (second compound 0.1 µM, first compound 0.0949 µM): 0.07% | viability, T/C (second compound 0.1 µM, first compound 0.3 µM): 0.11% | viability, T/C (second compound 0.316 µM, first compound 0.000949 µM): 121% | viability, T/C (second compound 0.316 µM, first compound 0.003 µM): 117% | viability, T/C (second compound 0.316 µM, first compound 0.00949 µM): 3.12% | viability, T/C (second compound 0.316 µM, first compound 0.03 µM): 0.03% | viability, T/C (second compound 0.316 µM, first compound 0.0949 µM): 0.05% | viability, T/C (second compound 0.316 µM, first compound 0.3 µM): 0.11% | viability, T/C (second compound 1 µM, first compound 0.000949 µM): 110% | viability, T/C (second compound 1 µM, first compound 0.003 µM): 132% | viability, T/C (second compound 1 µM, first compound 0.00949 µM): 4.62% | viability, T/C (second compound 1 µM, first compound 0.03 µM): 0.06% | viability, T/C (second compound 1 µM, first compound 0.0949 µM): 0.04% | viability, T/C (second compound 1 µM, first compound 0.3 µM): 0.11% | viability, T/C (second compound 3.16 µM, first compound 0.000949 µM): 114% | viability, T/C (second compound 3.16 µM, first compound 0.003 µM): 118% | viability, T/C (second compound 3.16 µM, first compound 0.00949 µM): 2.71% | viability, T/C (second compound 3.16 µM, first compound 0.03 µM): 0.06% | viability, T/C (second compound 3.16 µM, first compound 0.0949 µM): 0.05% | viability, T/C (second compound 3.16 µM, first compound 0.3 µM): 0.12% | viability, T/C (second compound 10 µM, first compound 0.000949 µM): 96.3% | viability, T/C (second compound 10 µM, first compound 0.003 µM): 100% | viability, T/C (second compound 10 µM, first compound 0.00949 µM): 2.68% | viability, T/C (second compound 10 µM, first compound 0.03 µM): 0.15% | viability, T/C (second compound 10 µM, first compound 0.0949 µM): 0.15% | viability, T/C (second compound 10 µM, first compound 0.3 µM): 0.23%

Source: PubChem BioAssay AID1918991 (Molecular Pharmacology Branch, DTP, NCI, 2023)
